The record followed here is patent publication US9980943B2, “Methods of treating muscular dystrophy” (BOARD OF REGENTS OF THE NEVADA SYSTEM OF HIGHER EDUCATION, …, priority 2013, dated 2018).

Common to all, as to type: cell-based, mouse
Test [1] relates to β-galactosidase in CMV-LacZ C2C12 myotubes. Nature of the test: CMV-LacZ secondary screen in C2C12 myotubes (β-Gal stabilizing assay). Particulars: for CMV-LACZ in Myotubes (β-galactosidase activity relative to DMSO): CMV-LacZ C2C12 myotubes, 96-well format; for CMV-LACZ in Myotubes, signal relative to DMSO: C2C12 CMV-LacZ myotubes, fold relative to DMSO. An outline of the steps:
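Stable CMV-LacZ C2C12 clone; six-point curve 0.5–40 μM; duplicates.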

The test system of test [2] is α7 integrin (LacZ reporter in α7+/LacZ myotubes). Nature of the test: Myotube α7 integrin FDG assay (Burkin assay in myotubes, 96-well). Particulars: myotubes.
Test [3] has as its system α7 integrin (LacZ reporter in α7βgal+/− myoblasts). Description: Myoblast α7+/LacZ integrin FDG assay (Burkin assay in myoblasts, 96-well). Particulars: α7+/LacZ myoblasts, 96-well.

For the compound `CCCCNC(=O)CN(C(=O)c1snc(C(=O)NC2CCCCC2)c1N)c1ccc(OC)cc1OC` [MLS001217697-01], the “CMV-LACZ in Myotubes (β-galactosidase activity relative to DMSO)” value in test [1] (5 uM) was found to be 1.2; in test [1] (10 uM), 0.8647; in test [1] (20 uM), 0.764; in test [1] (40 uM), 0.7395. The fold induction at 0.5 µM in test [2] (Mus musculus, Myotube, 0.5 uM, read-out: Burkin Assay in Myotubes (signal relative to DMSO)) came out at 1.2; in test [3] (Mus musculus, Myoblast, 48 h, 0.5 uM, read-out: Burkin Assay in Myoblasts, value relative to DMSO) it was 1.09. Besides, the fold induction at 1 µM in test [2] (Mus musculus, Myotube, 1 uM, read-out: Burkin Assay in Myotubes (signal relative to DMSO)) is 0.968; in test [3] (Mus musculus, Myoblast, 48 h, 1 uM, read-out: Burkin Assay in Myoblasts, value relative to DMSO), 1.12. In addition, the fold induction at 5 µM turned out to be 1.16 in test [2] (Mus musculus, Myotube, 5 uM, read-out: Burkin Assay in Myotubes (signal relative to DMSO)) and 1.18 in test [3] (Mus musculus, Myoblast, 48 h, 5 uM, read-out: Burkin Assay in Myoblasts, value relative to DMSO). In addition, the fold induction at 10 µM in test [2] (Mus musculus, Myotube, 10 uM, read-out: Burkin Assay in Myotubes (signal relative to DMSO)) came to 1.2; in test [3] (Mus musculus, Myoblast, 48 h, 10 uM, read-out: Burkin Assay in Myoblasts, value relative to DMSO) it was 1.16. Further, the fold induction at 20 µM turned out to be 1.12 in test [2] (Mus musculus, Myotube, 20 uM, read-out: Burkin Assay in Myotubes (signal relative to DMSO)) and 0.883 in test [3] (Mus musculus, Myoblast, 48 h, 20 uM, read-out: Burkin Assay in Myoblasts, value relative to DMSO). The fold induction at 40 µM is 1.12 in test [2] (Mus musculus, Myotube, 40 uM, read-out: Burkin Assay in Myotubes (signal relative to DMSO)) and 1.01 in test [3] (Mus musculus, Myoblast, 48 h, 40 uM, read-out: Burkin Assay in Myoblasts, value relative to DMSO).

Turning to `COc1ccc(S(=O)(=O)N(NC2=NS(=O)(=O)c3ccccc32)C(=O)C(C)C)cc1` [MLS000682883-01], the “CMV-LACZ in Myotubes, signal relative to DMSO” value in test [1] (5 uM) worked out at 0.9333; in test [1] (10 uM), 1.084; in test [1] (20 uM) it was 1.087; in test [1] (40 uM) it was 0.8967. The “Burkin Assay in Myotubes, α7 integrin LacZ reporter signal relative to DMSO” value in test [2] (0.5 uM) was found to be 0.8116; in test [2] (1 uM), 1.095; in test [2] (5 uM) it was 0.9936; in test [2] (10 uM), 1.01; in test [2] (20 uM) it was 1.102; in test [2] (40 uM), 1.094. For the same compound, the “Burkin Assay in Myoblasts, signal relative to DMSO” value in test [3] (0.5 uM) is on record as 0.9476; in test [3] (1 uM), 0.9633; in test [3] (5 uM), 1.011; in test [3] (10 uM) it was 0.9192; in test [3] (20 uM), 0.8269; in test [3] (40 uM) it was 0.7379.

`COc1ccccc1N(C(=O)CNC(=O)c1ccco1)C(C(=O)NC1CCCCC1)c1ccncc1` (stereo not shown) [MLS001220669-01]: the “CMV-LACZ in Myotubes, signal relative to DMSO” value stood at 0.8274 in test [1] (5 uM), 0.7701 in test [1] (10 uM), 1.0114 in test [1] (20 uM) and 1 in test [1] (40 uM). For the same compound, the “Burkin Assay in Myotubes (signal relative to DMSO)” value is recorded as 0.9722 in test [2] (0.5 uM); 0.978 in test [2] (1 uM); 1.0117 in test [2] (5 uM); 1.038 in test [2] (10 uM); 1.003 in test [2] (20 uM); 1.011 in test [2] (40 uM). In addition, the “Burkin Assay in Myoblasts, value relative to DMSO” value in test [3] (0.5 uM) was determined as 1; in test [3] (1 uM) it was 0.9426; in test [3] (5 uM) it was 0.9016; in test [3] (10 uM) it was 0.9605; in test [3] (20 uM), 0.8701; in test [3] (40 uM), 0.7613.

Take `O=C(Nc1ccccc1F)c1ccc([N+](=O)[O-])s1` [MLS000703499-01]: the “CMV-LACZ in Myotubes, signal relative to DMSO” value in test [1] (5 uM) was determined as 0.9313; in test [1] (10 uM), 0.9968; in test [1] (20 uM) it was 0.689; in test [1] (40 uM), 0.769. The “Burkin Assay in Myotubes, α7 integrin LacZ reporter signal relative to DMSO” value stood at 0.9725 in test [2] (0.5 uM); 0.8809 in test [2] (1 uM); 1.059 in test [2] (5 uM); 0.8518 in test [2] (10 uM); 1.101 in test [2] (20 uM); 0.4494 in test [2] (40 uM). Besides, the “Burkin Assay in Myoblasts, signal relative to DMSO” value amounted to 0.7093 in test [3] (0.5 uM); 1.017 in test [3] (1 uM); 0.9278 in test [3] (5 uM); 0.7632 in test [3] (10 uM); 0.4465 in test [3] (20 uM); 0.1043 in test [3] (40 uM).

For `COc1cc(/C=C/c2nc(-c3ccccc3O)n[nH]2)cc(OC)c1OC` [MLS000548725-01], the “CMV-LACZ in Myotubes (β-galactosidase activity relative to DMSO)” value is recorded as 0.9789 in test [1] (5 uM), 1.126 in test [1] (10 uM), 0.8729 in test [1] (20 uM) and 0.332 in test [1] (40 uM). Also, the “Burkin Assay in Myotubes (signal relative to DMSO)” value in test [2] (0.5 uM) is recorded as 0.8698; in test [2] (1 uM), 0.8418; in test [2] (5 uM) it was 0.9206; in test [2] (10 uM) it was 0.8462; in test [2] (20 uM) it was 1.031; in test [2] (40 uM), 0.2219. For the same compound, the “Burkin Assay in Myoblasts, value relative to DMSO” value in test [3] (0.5 uM) was 0.9132; in test [3] (1 uM), 0.8894; in test [3] (5 uM), 0.8989; in test [3] (10 uM), 0.7645; in test [3] (20 uM), 0.5169; in test [3] (40 uM) it was 0.07694.

Consider `COc1cc(C(C(=O)NC2CCCCC2)N(C(=O)c2snc(C(N)=O)c2N)c2ccc(C)cc2)ccc1O` (stereo not shown) [MLS001218427-01], for which the “CMV-LACZ in Myotubes, signal relative to DMSO” value is 1.209 in test [1] (5 uM), 15.1793 in test [1] (10 uM), 34.571 in test [1] (20 uM) and 0.6965 in test [1] (40 uM). Moreover, the “Burkin Assay in Myotubes, α7 integrin LacZ reporter signal relative to DMSO” value in test [2] (0.5 uM) is 0.8052; in test [2] (1 uM), 0.7974; in test [2] (5 uM), 0.8464; in test [2] (10 uM), 0.6054; in test [2] (20 uM) it was 0.3311; in test [2] (40 uM), 0.429. Further, the “Burkin Assay in Myoblasts, signal relative to DMSO” value in test [3] (0.5 uM) turned out to be 0.9466; in test [3] (1 uM), 0.9485; in test [3] (5 uM), 0.8334; in test [3] (10 uM), 0.7663; in test [3] (20 uM) it was 0.2232; in test [3] (40 uM), 0.3039.

Turning to `CN(C)C1(CN=Cc2cc(Cl)cc([N+](=O)[O-])c2O)CCCCC1` [MLS001179695-01], the “CMV-LACZ in Myotubes, signal relative to DMSO” value was determined as 1.183 in test [1] (5 uM), 1.095 in test [1] (10 uM), 1.175 in test [1] (20 uM) and 1.047 in test [1] (40 uM). Moreover, the “Burkin Assay in Myotubes, α7 integrin LacZ reporter signal relative to DMSO” value in test [2] (0.5 uM) came to 1.053; in test [2] (1 uM) it was 0.949; in test [2] (5 uM) it was 1.199; in test [2] (10 uM) it was 0.9922; in test [2] (20 uM) it was 0.9298; in test [2] (40 uM) it was 0.8546. In addition, the “Burkin Assay in Myoblasts, signal relative to DMSO” value in test [3] (0.5 uM) was 1.033; in test [3] (1 uM), 0.9441; in test [3] (5 uM), 0.8752; in test [3] (10 uM) it was 0.9871; in test [3] (20 uM), 0.8923; in test [3] (40 uM), 0.8068.
